Assay results reported in patent US5234907A, “Synthetic vasoactive intestinal peptide analogs” (Hoffmann-La Roche Inc., priority 1991, dated 1993).
[ ]: non-standard residue; d: D form. Phe(4-F) = N[C@@H](Cc1ccc(F)cc1)C(=O)O; Nle = CCCC[C@H](N)C(=O)O

Tests used:
guinea pigs = test: In vivo bronchodilator activity by tracheal instillation against histamine-induced bronchoconstriction; design: species or system guinea pig; settings: 100 μl, anesthetized male Hartley guinea pigs, histamine challenge 50 μg/kg i.v., inhibition of tracheal pressure increase
Description: The in vivo bronchodilator activity of VIP analogs in guinea pigs was assessed by the tracheal instillation route of administration. This technique utilized male guinea pigs (Hartley strain, Charles River) weighing 400-600 g. Animals were anesthetized with urethane (2 g/kg) intraperitoneally and a polyethylene cannula was inserted into the jugular vein for intravenous drug administration.
The animals were tracheotomized and dosing solutions of distilled water or test compound dissolved in distilled water were administered into the trachea, approximately three-quarter the distance to the carina with a pipette. The concentration of the dosing solution was adjusted to deliver a constant volume of 100 μl. The animals were placed supine for one minute to aid drug delivery to the lung. One minute later, spontaneous breathing was arrested with succinylcholine chloride (1.2 mg/kg) administered intravenously, and the animals were ventilized with a Harvard Model 680 small animal respirator set at 40 breaths/min and 4.0 cm^3 stoke volume. The animals were challenged with a maximal constrictory dose of histamine (50 μg/kg, i.v.) and tracheal pressure (cm of water) was recorded from a Statham pressure transducer (P 32 AA).
The change in tracheal pressure was averaged for at least 3 control and 3 drug-treated animals and percent inhibition was calculated. The relative potency of compounds administered by the instillation route was determined by administering various doses of test compound and calculating the median inhibitory dose (ID50 value). The ID50 was determined from log dose-reasons curves generated by at least 3 doses that caused inhibitory effects between 10% and 90%. The correlation coefficient for the regression line of each antagonist was always greater than 0.95.
For determination of the time course of inhibition for various compounds, the time between administration of compound and challenge with histamine was varied. The time course of activity was calculated as the time when inhibition decreased to 40%.

[1] = test system: guinea pig tracheal smooth muscle; test: Tracheal relaxant activity of VIP analogs on isolated guinea pig tracheal rings; format: cell-based; settings: cumulative concentration response; responses as % of maximum response to VIP (10^-6 M=100%); at least three tissues pooled; linear regression
Description: The relaxant activity of the VIP analogs was studied in a model utilizing guinea pig trachea. [Wasserman, M. A. et al., in Vasoactive Intestinal Peptide, S. I. Said, ed., Raven Press, N.Y. 1982, pp 177-184]; All tissues were taken from male albino guinea pig weighing 400-600 g, anesthesized with urethane (2 g/kg, i.p.). After exanguination, the trachea were removed and divided into four ring segments (3 mm length). Each ring was suspended by 30 gauge stainless steel wires in a 10 mL jacketed tissue bath and attached via 4-0 silk thread to a Grass force displacement transducer (model FT03C, Grass Instruments Co., Quincy, Ma), for isometric recording of tension. The smooth muscle was bathed in modified Krebs solution of the following composition: NaCl, 120 mM; KCl, 4.7 mM; CaCl2, 2.5 mM; MgSO.4 7H2 O, 1.2 mM; NaHCO3, 25 mM; K2 HPO4 monobasic, 1.2 mM; and dextrose, 10 mM. Tissue baths were maintained at 37° C. and constantly bubbled with 95% O2 and 5% CO2. Responses were recorded on an 8 channel and a 4 channel Hewlett-Packard (model 7702B and 7754A, respectively) recorder (Hewlett-Packard, Paramus, N.J.). […] Frequent readjustments of tension were required during the 60 minute stabilization period which followed. Tissues were rinsed at 15 minute intervals.
Cumulative concentration response curves were obtained for each tissue by successive […] increases in the bath concentration of VIP or VIP analogs according to the method of VanRossum [Arch. Int. Pharmacodyn., 143, 299-330 (1963)]. Only one cumulative dose response curve was obtained on a single tissue. To minimize variability between tissues, relaxant responses were expressed as a percentage of the maximum response obtained to VIP (10^-6 M=100%) added at the end of each concentration response experiment. Responses obtained from at least three tissues were pooled and EC50 values were determined by linear regression.

For “Ac--[Lys^12, Nle^17, Ala^19, Ala^25, Leu^26, Lys^27,28, Ala^29-31 ]--VIP (Ac-HSDAVFTDNYTKLRKQ[Nle]AAKKYLNALKKAAA-NH2; SMILES CCCC[C@H](NC(=O)[C@H](CCC(N)=O)NC(=O)[C@H](CCCCN)NC(=O)[C@H](CCCNC(=N)N)NC(=O)[C@H](CC(C)C)NC(=O)[C@H](CCCCN)NC(=O)[C@@H](NC(=O)[C@H](Cc1ccc(O)cc1)NC(=O)[C@H](CC(N)=O)NC(=O)[C@H](CC(=O)O)NC(=O)[C@@H](NC(=O)[C@H](Cc1ccccc1)NC(=O)[C@@H](NC(=O)[C@H](C)NC(=O)[C@H](CC(=O)O)NC(=O)[C@H](CO)NC(=O)[C@H](Cc1c[nH]cn1)NC(C)=O)C(C)C)[C@@H](C)O)[C@@H](C)O)C(=O)N[C@@H](C)C(=O)N[C@@H](C)C(=O)N[C@@H](CCCCN)C(=O)N[C@@H](CCCCN)C(=O)N[C@@H](Cc1ccc(O)cc1)C(=O)N[C@@H](CC(C)C)C(=O)N[C@@H](CC(N)=O)C(=O)N[C@@H](C)C(=O)N[C@@H](CC(C)C)C(=O)N[C@@H](CCCCN)C(=O)N[C@@H](CCCCN)C(=O)N[C@@H](C)C(=O)N[C@@H](C)C(=O)N[C@@H](C)C(N)=O) [Ac--(SEQ ID NO: 22)--NH2]”, the “Bronchodilator activity in guinea pigs, ED50” value (“Bronchodilator activity” for short) (guinea pigs) was 0.046 µg and the EC50 [1] was 0.24 nM.
In the case of “Ac--[p-F--Phe^6, Glu^8, Lys^12, Nle^17, Ala^25, Leu^26, Lys^27,28, Gly^29,30, Thr^31 ]--VIP (Ac-HSDAV[Phe(4-F)]TENYTKLRKQ[Nle]AVKKYLNALKKGGT-NH2; SMILES CCCC[C@H](NC(=O)[C@H](CCC(N)=O)NC(=O)[C@H](CCCCN)NC(=O)[C@H](CCCNC(=N)N)NC(=O)[C@H](CC(C)C)NC(=O)[C@H](CCCCN)NC(=O)[C@@H](NC(=O)[C@H](Cc1ccc(O)cc1)NC(=O)[C@H](CC(N)=O)NC(=O)[C@H](CCC(=O)O)NC(=O)[C@@H](NC(=O)[C@H](Cc1ccc(F)cc1)NC(=O)[C@@H](NC(=O)[C@H](C)NC(=O)[C@H](CC(=O)O)NC(=O)[C@H](CO)NC(=O)[C@H](Cc1c[nH]cn1)NC(C)=O)C(C)C)[C@@H](C)O)[C@@H](C)O)C(=O)N[C@@H](C)C(=O)N[C@H](C(=O)N[C@@H](CCCCN)C(=O)N[C@@H](CCCCN)C(=O)N[C@@H](Cc1ccc(O)cc1)C(=O)N[C@@H](CC(C)C)C(=O)N[C@@H](CC(N)=O)C(=O)N[C@@H](C)C(=O)N[C@@H](CC(C)C)C(=O)N[C@@H](CCCCN)C(=O)N[C@@H](CCCCN)C(=O)NCC(=O)NCC(=O)N[C@H](C(N)=O)[C@@H](C)O)C(C)C) [Ac--(SEQ ID NO: 17)--NH2]”, the “Bronchodilator activity” value (guinea pigs) is reported as 0.12 µg and the EC50 [1] is reported as 0.33 nM.
With “Ac--[Lys^12, Nle^17, Ala^19, Ala^25, Leu^26, Lys^27,28 ]--VIP (Ac-HSDAVFTDNYTKLRKQ[Nle]AAKKYLNALKK-NH2; SMILES CCCC[C@H](NC(=O)[C@H](CCC(N)=O)NC(=O)[C@H](CCCCN)NC(=O)[C@H](CCCNC(=N)N)NC(=O)[C@H](CC(C)C)NC(=O)[C@H](CCCCN)NC(=O)[C@@H](NC(=O)[C@H](Cc1ccc(O)cc1)NC(=O)[C@H](CC(N)=O)NC(=O)[C@H](CC(=O)O)NC(=O)[C@@H](NC(=O)[C@H](Cc1ccccc1)NC(=O)[C@@H](NC(=O)[C@H](C)NC(=O)[C@H](CC(=O)O)NC(=O)[C@H](CO)NC(=O)[C@H](Cc1c[nH]cn1)NC(C)=O)C(C)C)[C@@H](C)O)[C@@H](C)O)C(=O)N[C@@H](C)C(=O)N[C@@H](C)C(=O)N[C@@H](CCCCN)C(=O)N[C@@H](CCCCN)C(=O)N[C@@H](Cc1ccc(O)cc1)C(=O)N[C@@H](CC(C)C)C(=O)N[C@@H](CC(N)=O)C(=O)N[C@@H](C)C(=O)N[C@@H](CC(C)C)C(=O)N[C@@H](CCCCN)C(=O)N[C@@H](CCCCN)C(N)=O) [Ac--(SEQ ID NO: 12)--NH2]” the “Bronchodilator activity” value (guinea pigs) was 0.014 µg and the EC50 [1] was 1.5 nM.
